Data reported in patent US10640468B2, “1-(4-(2-((1-(3,4-difluorophenyl)-1H-pyrazol-3-Yl)methoxy)ethyl)piperazin-1- Yl)ethanone salts” (ESTEVE PHARMACEUTICALS S.A., priority 2015, dated 2020).
Where “and” joins values, the source holds several entries; their conditions need not be identical. Equal entries are not always repeated. Structures can show the parent of a compound that is named as a salt. Where two headings read alike, the source gives them in different places.

Experiments:
[1] = Pharmacokinetics after single oral administration to male Wistar rat; format: in vivo
Description: The pharmacokinetics of Example 1 and 2 were tested using the following protocol:
Male Wistar rats weighing 250 to 300 g (±20) supplied by Harlan were used. Water and food was available ad libitum throughout the study.
Administration and Sample Collection
Two rats (R1 and R2) were used in the pharmacokinetic oral studies.
A single dose of tested compound was administered by oral gavage [10 mg/kg as free base (Example 0)] in 0.5% hydroxypropyl methylcellulose (1 mg/ml). From each rat, serial blood samples were collected at 15 and 30 min, 1, 2, 3, 5, 7 and 24 h.
Blood was collected from the saphenous veins into heparinized tubes. Plasma was obtained by blood centrifugation at 4° C. and 2280×g for 10 min and kept at −80° C. until analysis.
Tested compound concentration in plasma samples was determined by least-squares linear regression using a ten-point calibration curve. The calibration curve was prepared in blank plasma from a working solution of 1 mg/ml in DMSO.
Samples were thawed at room temperature on the day of analysis. After plasma protein precipitation of samples and calibration standards with acetonitrile (1:4.3; v/v), the mixture was vortexed and centrifuged (4° C. and 16090×g for 10 min).
Tested compound plasma concentrations were determined by high performance liquid chromatography-triple quadrupole mass spectrometry (HPLC-MS/MS) through the following method:
Column: Atlantis® T3 column (2.1×100 mm, 3 μm) (Waters).
Mobile phase: A: 0.0155% Formic water • B: 0.0155% Formic Acetonitrile
Autosampler wash: Solvent 1:Acetonitrile • Solvent 2: 5% Acetonitrile+95% Water
Standard pharmacokinetic parameters, such as area under the curve (AUC), peak plasma concentration (Cmax), time to peak concentration (tmax), oral bioavailability (F), total plasma clearance (Cl), volume of distribution at steady-state (Vss), mean residence time (MRT) and terminal half-life (t1/2), were determined by non-compartmental analysis of the plasma concentration-time curves (Phoenix v. 6.2.1.51, Pharsight, C A).

[2] = Thermodynamic solubility at pH 7.4; format: physicochemical; settings: for solubility thermodynamic at 24 h: phosphate buffer, 25 °C, pH 7.4, aqueous buffer, thermodynamic from solid
Description: General protocol for thermodynamic solubility at pH 7.4 and pH 2 are described. • A) Thermodynamic Solubility at pH 7.4
Phosphate buffer at pH 7.4 (25 mM) was prepared as follows:
A solution 25 mM of Na2HPO4.12H2O (for 1 L of water, weight 8.96 g) was prepared
A solution 25 mM de KH2PO4 (for 1 L of water weight 3.4 g) was prepared.
Disodium phosphate solution (812 mL) and potassium phosphate (182 mL) solution were mixed and pH checked to be 7.4.
Equipment • Precision analytical balance Mettler Toledo AT20. • Analytical balance Mettler Toledo PJ300. • Liquid chromatograph Waters Alliance 2695. • Stirrer Thermomixer Control of Eppendorf a 25° C. y 1250 rpm • pHmeter with combined semi-micro electrode.
Around 4 mg of compound in an HPLC vial (by duplicate) was dissolved in 1 mL of buffer solution. After stirring in Thermomixer Comfort system for 24 hours at 25° C., in order to achieve thermodynamic equilibrium, solution was centrifuged at 3000 rpm for 15 minutes.
The resulting upper layer was collected with a glass pipette and transferred to the HPLC vials in order to inject them (10 μL) directly to the HPLC instrument.
Standards were made in methanol to ensure overall compound solubility. Preparation of standard calibrators is illustrated below:
Sol.A: 4 mg in 1 mL methanol (4000 μg/mL)
Sol.B: 0.5 mL Sol.A to 5 mL with methanol (400 μg/mL)
Sol.C: 1 mL Sol.B to 10 mL with methanol (40 μg/mL)
Sol.D: 5 mL […] to 50 mL with methanol (4 μg/mL)
Sol.E: 4 mL Sol.D to 10 mL with methanol (1.6 μg/mL)
Calibration curve was created through 10 μL injection of standards, beginning with the more diluted standard. Blanks were also injected, for checking the absence of contamination.
10 μl of test substance were injected, by duplicate, and the average peak area interpolated in the calibration curve (see Tables Examples below).
Chromatographic Conditions • Column: XBridge C18 (or similar) 2.5 μm 4.6×50 mm • Temperature: 35° C. • Mobile phase: ACN/ammonium bicarbonate 10 mM. • Gradient: 0-3.5 min: from 15% CAN to 95% CAN • 3.5-5 min: 95% ACN • 5-6 min: 95 a 15% ACN • 6-8 min: 15% ACN • Flow: 1.5 mL/min • Detection: around the maximum UV wavelength. • B) Thermodynamic Solubility at pH 2

[3] = mean of 2 rats, 10 mg/kg oral, hydrochloride, 10 mg/kg

Compound `CC(=O)N1CCN(CCOCc2ccn(-c3ccc(F)c(F)c3)n2)CC1` [Example 1, hydrochloride] has an F ([1]; animal 1, 10 mg/kg oral, mean AUC after i.v. administration used for calculation, hydrochloride) of 66%, an F ([1]; animal 2, 10 mg/kg oral, mean AUC after i.v. administration used for calculation, hydrochloride) of 53% and a Vd ([1]; male, Wistar, plasma, rat, total body water volume 0.6 l/kg, read-out: volume of distribution) of 1.2 L/kg. It also gave a bioavailability ([1]; male, Wistar, rat, plasma, oral, 10 mg/kg, mean of 2 rats, 10 mg/kg oral, mean AUC after i.v. administration used for calculation, read-out: F (oral bioavailability)) of 60%, an AUC ([1]; male, Wistar, rat, plasma, po, 10 mg/kg, animal 1, 10 mg/kg oral, read-out: AUC) of 2950 ng·h/mL and a Cmax ([1]; male, Wistar, rat, plasma, po, 10 mg/kg, animal 1, 10 mg/kg oral, read-out: Cmax) of 1.31 µg/mL. The half-life ([1]; male, Wistar, rat, plasma, po, 10 mg/kg, animal 1, 10 mg/kg oral, read-out: t1/2 (converted)) was 54 min, the tmax ([1]; male, Wistar, rat, plasma, po, 10 mg/kg, animal 1, 10 mg/kg oral, read-out: tmax) was 15 min and the AUC ([1]; male, Wistar, rat, plasma, po, 10 mg/kg, animal 2, 10 mg/kg oral, read-out: AUC) was 2340 ng·h/mL. It also gave a Cmax ([1]; male, Wistar, rat, plasma, po, 10 mg/kg, animal 2, 10 mg/kg oral, read-out: Cmax) of 1.05 µg/mL, a half-life ([1]; male, Wistar, rat, plasma, po, 10 mg/kg, animal 2, 10 mg/kg oral, read-out: t1/2 (converted)) of 54 min and a tmax ([1]; male, Wistar, rat, plasma, po, 10 mg/kg, animal 2, 10 mg/kg oral, read-out: tmax) of 60 min. For the same compound, the AUC ([1]; male, Wistar, rat, plasma, po, 10 mg/kg, mean of 2 rats, 10 mg/kg oral, read-out: AUC) was roughly 2600 ng·h/mL, the Cmax ([1]; male, Wistar, rat, plasma, po, 10 mg/kg, mean of 2 rats, 10 mg/kg oral, read-out: Cmax (peak plasma concentration)) was roughly 1 µg/mL and the half-life ([1]; male, Wistar, rat, plasma, po, 10 mg/kg, mean of 2 rats, 10 mg/kg oral, read-out: t1/2 (terminal half-life)) was less than 60 min. For the same compound, the tmax ([1]; male, Wistar, rat, plasma, po, 10 mg/kg, mean of 2 rats, 10 mg/kg oral, read-out: tmax) was 36 min, the concentration at 0.5 h ([1]; male, Wistar, rat, plasma, po, 10 mg/kg, rat R1, 0.5 h, 10 mg/kg oral) was 1.3 µg/mL and the concentration at 1 h ([1]; male, Wistar, rat, plasma, po, 10 mg/kg, rat R1, 1 h, 10 mg/kg oral) was 1.07 µg/mL. The concentration at 5 h ([1]; male, Wistar, rat, plasma, po, 10 mg/kg, rat R1, 5 h, 10 mg/kg oral) was 0.0496 µg/mL, the concentration at 0.5 h ([1]; male, Wistar, rat, plasma, po, 10 mg/kg, rat R2, 0.5 h, 10 mg/kg oral) was 0.742 µg/mL and the concentration at 1 h ([1]; male, Wistar, rat, plasma, po, 10 mg/kg, rat R2, 1 h, 10 mg/kg oral) was 1.05 µg/mL. For the same compound, the concentration at 5 h ([1]; male, Wistar, rat, plasma, po, 10 mg/kg, rat R2, 5 h, 10 mg/kg oral) was 0.0469 µg/mL, the concentration at 7 h ([1]; male, Wistar, rat, plasma, po, 10 mg/kg, rat R2, 7 h, 10 mg/kg oral) was 0.0115 µg/mL and the AUC [1, 3] was 2645 ng·h/mL. The “t1/2 (terminal half-life)” value [1, 3] was 54 min, the tmax [1, 3] was 37.8 min and the plasma clearance ([1]; rat) was 70 % liver blood flow. For the same compound, the Plasma concentration ([1]; rat R1, 2 h, 10 mg/kg oral, hydrochloride, 10 mg/kg) was 0.7228 µg/mL, the Plasma concentration ([1]; rat R1, 3 h, 10 mg/kg oral, hydrochloride, 10 mg/kg) was 0.3231 µg/mL and the Plasma concentration ([1]; rat R1, 7 h, 10 mg/kg oral, hydrochloride, 10 mg/kg) was 0.0128 µg/mL. For the same compound, the Plasma concentration ([1]; rat R1, 24 h, 10 mg/kg oral, LLOQ 2 ng/ml) was “<lloq”, the Plasma concentration ([1]; rat R2, 2 h, 10 mg/kg oral, hydrochloride, 10 mg/kg) was 0.6739 µg/mL and the Plasma concentration ([1]; rat R2, 3 h, 10 mg/kg oral, hydrochloride, 10 mg/kg) was 0.2331 µg/mL. For the same compound, the Plasma concentration ([1]; rat R2, 24 h, 10 mg/kg oral, LLOQ 2 ng/ml) was “<lloq”, the Conc. ([2]; pH 7.4, single HPLC injections of duplicate vials, hydrochloride) was 3928 µg/mL and 3817.1 µg/mL and 4301.5 µg/mL and 4345.3 µg/mL and the solubility thermodynamic at 24 h ([2]; pH 7.4, mean of 4 injections, read-out: Conc. Mean) was 4100 µg/mL. It also gave a solubility thermodynamic at 24 h ([2]; pH=7.4, 24 hours at 25° C., completely dissolved, read-out: thermodynamic solubility) greater than 4000 µg/mL.
